Laboratory results: patent US5696117A, “Benzoxazine antimicrobial agents” (Ortho Pharmaceutical Corporation, priority 1995, dated 1997)

Target: T1, Kinase A and SpoOF (Bacillus subtilis, UniProt P16497)
T1 construct: made in house; host or cells: recombinant E. coli (overexpression)
T1 sequence (P16497 1-606): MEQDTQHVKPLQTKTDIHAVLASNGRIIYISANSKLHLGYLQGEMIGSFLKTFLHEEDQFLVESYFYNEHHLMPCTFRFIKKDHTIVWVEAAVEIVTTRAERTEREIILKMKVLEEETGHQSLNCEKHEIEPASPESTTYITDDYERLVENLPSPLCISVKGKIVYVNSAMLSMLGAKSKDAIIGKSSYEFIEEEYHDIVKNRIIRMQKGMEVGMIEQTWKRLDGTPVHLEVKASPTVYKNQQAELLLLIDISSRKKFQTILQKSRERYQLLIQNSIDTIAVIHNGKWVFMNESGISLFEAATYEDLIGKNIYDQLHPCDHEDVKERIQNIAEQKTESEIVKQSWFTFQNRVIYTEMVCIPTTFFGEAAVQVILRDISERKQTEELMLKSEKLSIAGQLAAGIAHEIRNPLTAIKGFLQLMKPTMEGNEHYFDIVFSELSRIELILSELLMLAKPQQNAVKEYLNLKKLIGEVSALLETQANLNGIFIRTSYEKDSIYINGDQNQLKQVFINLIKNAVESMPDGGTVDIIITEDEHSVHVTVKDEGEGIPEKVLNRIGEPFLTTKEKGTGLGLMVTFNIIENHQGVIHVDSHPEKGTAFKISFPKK
Assay: Autophosphorylation of Kinase A and Transphosphorylation of SpoOF Assay (HPK in vitro assay)
Type: biochemical
Details: inhibition of KinA autophosphorylation / SpoOF transphosphorylation, inhibitor concentrations from 1 to 500 μM
Description: 1. Autophosphorylation of Kinase A and Transphosphorylation of SpoOF Assay
To study the effect of the compounds of the present invention on the signal transduction process in bacteria, the inhibiting effect of the compounds on the sporulation operon proteins Kinase A and SpoOF was examined. Specifically, the inhibition of autophosphorylation of Kinase A and the transphosphorylation of SpoOF was determined in the following assays. The SpoOF response regulator is the primary substrate for phosphorylation by the protein kinase, Kin A, involved in the sporulation process in bacteria. See D. Burbulys, K. A. Trach, J. A. Hoch, Cell, 64, 545-552 (1991). SpoOF and KinA were prepared from recombinant E. coli overexpressing the proteins (J. Cavanagh et al, Amino Acids, 6, 131-140 (1994) and references therein).
The following stock reagents were either prepared and used promptly or stored at the indicated temperature:
8× Salts: 2M KCl (5 mL), 1M MgCl2 (800 mL), 1M CaCl2 (100 mL), 10 mg/mL phenylmethylsulfonyl fluoride (200 mL), 1M dithioreitol (50 mL), 0.25M Na2 EDTA (32 mL) and H2 O 3.82 mL (-20° C.)
5× Loading Dye: 0.5M TRIS-HCl-pH 6.8 (7.5 mL), 10% SDS (2 mL) 0.1% bromophenol blue (0.5 mL), 100% glycerol (3 mL) and 12.5M 2-mercaptoethanol (0.3 mL)
1-1.3 mg/mL KinA:15 mM TRIS-HCl, pH 8.0, 6 mM KCl; 4 mM 2-mercaptoethanol; 40% glycerol (-20° C.)
1 mg/mL SpoOF: 17.5 mM TRIS-HCl, pH 8.0; 0.7 mM KCl; 0.7 mM MgCl2; 0.7 mM CaCl2; 5mM 2-mercaptoethanol; 30% Glycerol (-20° C.)
5% Stacking Gel: 40% 29:1 acrylamide:bis acrylamide (1.25 mL), 0.5M TRIS-HCl, pH 6.8 (2.5 mL), 10% SDS (0.1 mL), D-H2 O (6.15 mL) 10% ammonium persulfate (100 mL) and TEMED (25 mL)
SDS Running Buffer: TRIS-BASE (3.02 g), glycine (14.4 g) SDS (1 g), D-H2 O (to 1 L)
The reaction mixture was prepared from 8× Salts (87 μL), 1M TRIS, pH 8 (118 μL), 50% glycerol (63 μL), SpoOF (14.1 μL) and KinA (7.0 μL). Microcentrifuge tubes were charged with the reaction mixture (18.5 μL) and a 1.0 mM solution of the test compound in 5% DMSO (18.5 μL), and incubated for 15 min on ice. 100 mM ATP solution (3.0 μl, containing 625 μCi [^32 P]ATP) was added, and the mixture left for 10 minutes at room temperature. The reaction was quenched with 5× loading dye (10 μL per tube) and the samples were loaded on a prepared 5% Stacking Gel, or stored on dry ice until ready for use. The prepared wells were filled with SDS Running Buffer, samples were loaded into the wells, and 80 volts were applied to the gel until the dye front reached the bottom of the stacking gel. The voltage was then increased to 250 volts until electrophoresis was complete. Radioactive bands in the gel corresponding to phosphorylated KinA and SpoOF were imaged and quantitated with a phosphoimager.
If either enzyme was inhibited (as evidenced by the absence of labelled protein in the developed gel), an IC50 was calculated by running the assay with a range of inhibitor concentrations from 1 to 500 μM. After electrophoresis of the reaction mixtures, percent inhibition was determined by measuring the concentration of radioactive phosphorus with a phosphoimager and calculating the values using a software program (BioRad Molecular Analyst). IC50 values of less than 500 μM are considered active.

Molecule | IC50 [µM]
CC(C)(C)OC(=O)NCc1cccc(OCCC2Oc3ccccc3N(Cc3cccc(Cl)c3)C2=O)c1 (stereo not shown) [Compound 73, 2-{2-[3-(t-Butoxycarbonylaminomethyl)phenoxy]ethyl}-4-(3-chlorobenzyl)-3,4-dihydro-3-oxo-2H-1,4-benzoxazine] | 354
CC(C)(C)OC(=O)N=C(NCCc1ccc(OCCC2Oc3ccccc3N(Cc3csc(Cl)c3)C2=O)cc1)NC(=O)OC(C)(C)C (stereo not shown) [Compound 47, 2-{2-[4-[2-(N,N-Bis-tert-butoxycarbonylguanidino)ethyl]phenoxy]ethyl}-4-(2-chloro-4-thienylmethyl)-3,4-dihydro-3-oxo-2H-1,4-benzoxazine] | 398
CC(C)(C)OC(=O)NCCc1cccc(OCCC2Oc3ccccc3N(Cc3cccc(Cl)c3)C2=O)c1 (stereo not shown) [Compound 69, 2-{2-[3-(2-(t-Butoxycarbonylamino)ethyl)phenoxy]ethyl}-4-(3-chlorobenzyl)-3,4-dihydro-3-oxo-2H-1,4-benzoxazine] | 358
N=C(N)NCCc1ccc(OCCC2Oc3cc([N+](=O)[O-])ccc3N(Cc3ccc([N+](=O)[O-])cc3)C2=O)cc1 (stereo not shown) [Compound 97, 3,4-Dihydro-2-{2-[4-(2-guanidinoethyl)phenoxy]ethyl}-7-nitro-4-(4-nitrobenzyl)-3-oxo-2H-1,4-benzoxazine] | 53
CC(C)(C)OC(=O)NCCc1ccc(OCCC2Oc3ccccc3N(Cc3cccc(C(=O)O)c3)C2=O)cc1 (stereo not shown) [Compound 111, 3-{3,4-Dihydro-2-[2-(4-(2-(-t-butoxycarbonylamino)ethyl)phenoxy)]ethyl-3-oxo-2H-1,4-benzoxazin-4-yl}methylbenzoic Acid] | 113
Cc1ccc(CN2CC(CCOc3ccc(CCNC(=N)N)cc3)Oc3ccccc32)cc1 (stereo not shown) [Compound 66, 3,4-Dihydro-2-{2-[4-[2-guanidinoethyl]phenoxy]ethyl}-4-(4-methylbenzyl)-2H-1,4-benzoxazine] | 19
COc1ccc(CN2C(=O)C(CCOc3ccc(CCNC(=NC(=O)OC(C)(C)C)NC(=O)OC(C)(C)C)cc3)Oc3ccccc32)cc1 (stereo not shown) [Compound 140, 2-{2-[4-[2-(N,N-Bis-tert-butoxycarbonylguanidino)ethyl]phenoxy]ethyl}-3,4-dihydro-4(4-methoxybenzyl)-3-oxo-2H-1,4-benzoxazine] | 343
3,4-Dihydro-4-(2,4-dichlorobenzyl)-2-{2-[4-(2-guanidinoethyl)phenoxy]ethyl}-3-oxo-2H-1,4-benzoxazine [Compound 141] | 37
CC(C)(C)OC(=O)NCc1ccc(OCCC2Oc3ccccc3N(Cc3ccc(Cl)cc3)C2=O)cc1 (stereo not shown) [Compound 3, 2-[2-[4-(t-Butoxycarbonylaminomethyl)phenoxy]ethyl]-4-(4-chlorobenzyl)-3,4-dihydro-3-oxo-2H-1,4-benzoxazine] | 283
CC(C)(C)OC(=O)N=C(NCCc1ccc(OCCC2Oc3ccc(C(F)(F)F)cc3N(Cc3cccc(Cl)c3)C2=O)cc1)NC(=O)OC(C)(C)C (stereo not shown) [Compound 53, 2-{2-[4-[2-(N,N'-Bis-tert-butoxycarbonylguanidino)ethyl]phenoxy]ethyl}-4-(3-chlorobenzyl)-3,4-dihydro-3-oxo-6-trifluoromethyl-2H-1,4-benzoxazine] | 84
CC(C)(C)OC(=O)N=C(NCc1ccc(OCCC2Oc3ccccc3N(Cc3cccc(Cl)c3)C2=O)cc1)NC(=O)OC(C)(C)C (stereo not shown) [Compound 77, 2-{2-[4-[(N,N-'Bis-tert-butoxycarbonyl)guanidinomethyl]phenoxy]ethyl}-4-(3-chlorobenzyl)-3,4-dihydro-3-oxo-2H-1,4-benzoxazine] | 51

Now from value to molecule:

IC50 [µM] | Molecule
254 | NCCc1ccc(OCCC2Oc3ccccc3N(Cc3cccc(C(=O)O)c3)C2=O)cc1 (stereo not shown) [Compound 112, 3-{3,4-Dihydro-2-[2-(4-(2-aminoethyl)phenoxy)]ethyl-3-oxo-2H-1,4-benzoxazin-4-yl}methylbenzoic Acid]
41 | N=C(N)NCCc1ccc(OCCC2Oc3cccnc3N(Cc3cccc(Cl)c3)C2=O)cc1 (stereo not shown) [Compound 25, 4-(3-Chlorobenzyl)-3,4-dihydro-2-[2-[4-(2-guanidinoethyl)phenoxy]ethyl]-3-oxo-2H-pyrido[3,2-b]-1,4-oxazine]
56 | Cc1ccc2c(c1)N(Cc1cccc(Cl)c1)C(=O)C(CCOc1ccc(CCNC(=N)N)cc1)O2 (stereo not shown) [Compound 24, 4-(3-Chlorobenzyl)-3,4-dihydro-2-[2-[4-(2-guanidinoethyl)phenoxy]ethyl]-6-methyl-3-oxo-2H-1,4-benzoxazine]
42 | NCCCc1ccc(OCCC2Oc3ccccc3N(Cc3ccc(Cl)cc3)C2=O)cc1 (stereo not shown) [Compound 142, 2-[2-[4-(3-Aminopropyl)phenoxy]ethyl]-4-(4-chlorobenzyl)-3,4-dihydro-3-oxo-2H-1,4-benzoxazine]
172 | NCc1ccc(OCCC2Oc3ccccc3N(Cc3ccccc3Cl)C2=O)cc1 (stereo not shown) [Compound 14, 2-[2-[4-(Aminomethyl)phenoxy]ethyl]-4-(2-chlorobenzyl)-3,4-dihydro-3-oxo-2H-1,4-benzoxazine]
68 | N=C(N)NCCc1ccc(OCCC2Oc3ccccc3N(Cc3ccsc3)C2=O)cc1 (stereo not shown) [Compound 46, 3,4-Dihydro-2-{2-[4-(2-guanidinylethyl)phenoxy]ethyl}-3-oxo-2H-4-(3-thienylmethyl)-1,4-benzoxazine]
122 | NCc1cccc(OCCC2Oc3ccccc3N(Cc3ccc(Cl)cc3)C2=O)c1 (stereo not shown) [Compound 10, 2-[2-[3-(Aminomethyl)phenoxy]ethyl]-4-(4-chlorobenzyl)-3,4-dihydro-3-oxo-2H-1,4-benzoxazine]
17 | N=C(N)NCCc1ccc(OCCC2CN(Cc3ccc(Cl)cc3Cl)c3ccccc3O2)cc1 (stereo not shown) [Compound 68, (2,4-Dichlorobenzyl)-3,4-dihydro-2-{2-[4-(2-guanidinoethyl)phenoxy]ethyl}-4-2H-1,4-benzoxazine]
24 | N=C(N)NCCc1ccc(OCCC2Oc3ccccc3N(Cc3ccc([N+](=O)[O-])cc3)C2=O)cc1 (stereo not shown) [Compound 139, 3,4-Dihydro-2-{2-[4-(2-guanidinoethyl)-phenoxy]ethyl}-4-(4-nitrobenzyl)-3-oxo-2H-1,4-benzoxazine]
11 | Cl.N=C(N)NCCc1ccc(OCCC2Oc3cc([N+](=O)[O-])ccc3N(Cc3ccccc3Cl)C2=O)cc1 (stereo not shown) [Compound 87, 4-(2-Chlorobenzyl)-3,4-dihydro-2-{2-[4-(2-guanidinoethyl)phenoxy]ethyl}-7-nitro-3-oxo-2H-1,4-benzoxazine Monohydrochloride]
16 | N=C(N)NCCc1ccc(OCCC2Oc3ccccc3N(Cc3ccccc3Cl)C2=O)cc1 (stereo not shown) [Compound 20, 4-(2-Chlorobenzyl)-2-[2-[4-(2-guanidinoethyl)phenoxy]ethyl]-3,4-dihydro-3-oxo-2H-1,4-benzoxazine]
